From patent US20060159617A1, “Small technetium-99m and rhenium labeled agents and methods for imaging tissues, organs and tumors” (priority 2002, published 2006)

Tests used:
σ2 receptor = target: T1, σ2 receptor (Rattus norvegicus, UniProt Q5U3Y7); assay: σ2 receptor competition binding assay with [3H]-DTG, σ1 masked; conditions: apparent Ki, rat liver membranes
T1 construct: Rat liver membranes were prepared from male Sprague-Dawley rat livers as previously described; from tissue; host or cells: male Sprague-Dawley rat liver membranes
T1 sequence (Q5U3Y7 1-176): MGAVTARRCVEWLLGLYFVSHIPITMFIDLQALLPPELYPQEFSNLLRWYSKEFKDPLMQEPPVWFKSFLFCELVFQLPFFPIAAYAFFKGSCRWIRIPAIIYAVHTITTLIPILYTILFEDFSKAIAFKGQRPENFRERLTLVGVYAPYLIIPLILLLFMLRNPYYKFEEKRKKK
Protocol: Rat liver membranes were prepared from male Sprague-Dawley rat livers as previously described (Eur. J. Pharmacol.—Mol. Pharmacol. Sect. 1994, 268, 9-18). The in vitro σ2 receptor binding affinities of rhenium coordinated complexes were determined in a competition assay using rat livers and [^3H]-DTG (31 Ci/mmol, NEN Life Science Inc., Cambridge, Mass.) as radioligand in the presence of 10 μM 1-pyrrolidinylethyl 3,4-dichlorophenylacetate oxalate (ACT915 oxalate) to mask σ1 receptors (Bioorg. & Med. Chem. Lett. 2000, 10, 17-18). Competition assays were performed with twelve concentrations of the nonradioactive rhenium complexes ranging from 1×10^−10 to 1×10^−3 and protein samples (0.15 mg of membrane protein) in a total volume of 0.25 mL of Tris-HCl (50 mM, pH 8.0) for 120 min at 25° C. All other manipulations and data analysis were performed as described vide supra for the σ1-receptor assays.

α1 receptor = assay: Alpha-1 receptor competition binding assay with [3H]-Prazosin; conditions: apparent Ki, rat frontal cortex
Protocol: The in vitro α1 receptor binding affinities of rhenium coordinated complexes were determined in a competition assay using rat frontal cortex and high-affinity α1 ligand [^3H]-Prazosin (80 Ci/mmol, NEN Life Science Inc., Cambridge, Mass.). See, Eur. J. Nucl. Med. 2002, 29, 82-87.
The frontal cortex of rat brain was prepared as described above and store at −70° C. until used in the binding assays. Ten concentrations of the nonradioactive rhenium complexes ranging from 1×10^−10 to 1×10^−3 and protein samples (0.15 mg of membrane protein) were incubated with 1.5 nM [^3H]-Prazosin in a total volume of 0.25 mL of Tris-HCl (50 mM, pH 7.4, 10 mM MgSO4). Incubations were carried out for 60 min at 25° C. All assays were terminated by dilution with 5 mL of ice-cold Tris-HCl (10 mM), pH 7.4, and solution were filtered through glass-fiber filters (Whatman GF/F; presoaked in 0.5% polyethyleneimine for 30 min at 25° C.). Filters were then washed three times with 5 mL of ice-cold Tris-HCl (50 mM, pH 7.4), and counted in Hionic-Fluor cocktail (Packard, Groningen, the Netherlands). The corresponding IC50 values were determined with Origin 6.0 software (OriginLab, Northampton, Mass.) and were used for the calculation of the apparent Ki values with the Cheng-Prusoff equation. See, Biocheni. Pharmacol. 1973, 22, 3099-3108.

[1] = Determination of lipophilicity and pKa values by HPLC; assay type: physicochemical; conditions: for k' (pH = 7.4): HPLC capacity factor at pH 7.4; for k' (Max): HPLC capacity factor, maximum; for pKa (Corrected): HPLC method, corrected with standard amines
Protocol: The lipophilicity and pKa values of all complexes were determined using HPLC methods described previously (Stylli, C.; Theobald, A. E. Determination of Ionization Constants of Radiopharmaceuticals in Mixed Solvents by HPLC. Appl. Radiat. Isot., 1987, 38, 701-708; Johannsen, B.; Scheunemann, M.; Spies, H.; Brust, P.; Wober, J.; Syhre, R.; Pietzsch, H.-J. Technetium(V) and Rhenium(V) Complexes for 5-HT2A Serotonin Receptor Binding: Structure-Affinity Considerations. Nucl. Med. Biol., 1996, 23, 429-438; and Johannsen, B.; Berger, R.; Brust, P.; Pietzsch, H.-J.; Scheunemann, M.; Seifert, S.; Spies, H.; Syhre, R. Structural Modification of Receptor-Binding Technetium-99m Complexes in Order to Improve Brain Uptake. Eur. J. Nucl. Med. 1997, 24, 316-319). […] The mobile phase was acetonitrile:phosphate buffer (0.01 M), 3:1, v/v, with the aqueous buffer adjusted to the desired pH between 3 and 11. The capacity factor (k′) was calculated for each determination (Braumann, T.; Grimme, L. H. Determination of Hydrophobic Parameters for Pyridazinone Herbicides by Liquid-Liquid Partition and Reversed-Phase High-Performance Liquid Chromatography. J. Chromatogr. 1981, 206, 7-15; El Tayer, N.; van der Waterbeemd, H.; Testa, B. Lipophilicity Measurements of Protonated Basic Compounds by Reversed-Phase High-Performance Liquid Chromatography. II. Procedure for the Determination of a Lipophilic Index Measured by Reversed-Phase High Performance Liquid Chromatography. J. Chromatogr. 1985, 320, 305-312; and Minick, D. J.; Frenz, J. H.; Patrick, M. A.; Brent, D. A. A Comprehensive Method for Determining Hydrophobicity Constants by Reversed-Phase High-Performance Liquid Chromatography. J. Med. Chem., 1988, 31, 1923-1933) and the partition coefficient at a given pH (D or logD) were calculated from the equation: log D=a log k′+b where the parameters a and b are predetermined using standard amines. The fitted points of inflection from the sigmoidal DHPLC/pH profiles permit calculation of the pKHPLC(Stylli, C.; Theobald, A. E. Determination of Ionization Constants of Radiopharmaceuticals in Mixed Solvents by HPLC. Appl. Radiat. Isot., 1987, 38, 701-708). The aqueous ionization constants pKa were calculated from the pKHPLC values after correction with a predetermined correction factor obtained using standard amine compounds. Log P values of the neutral complexes were estimated from the respective upper plateau of the sigmoidal log D/pH curve in the alkaline range.

| SMILES | Ki (σ2 receptor) | Ki (α1 receptor) | k' (pH = 7.4) [1] | k' (Max) [1] | pKa (Corrected) [1] |
| --- | --- | --- | --- | --- | --- |
| COc1ccccc1C1CCN(CCCN2CC[S][Re]3(=[O])[S]CC[N]3C(=O)C2)CC1 (stereo not shown) [Re-16] | 0.336 ± 0.07 µM | 0.048 ± 0.009 µM | 57 | 117 | 8.09 |
| O=C1CN(CCCN2CCC(Cc3ccccc3)CC2)CC[S][Re]2(=[O])[S]CC[N]12 (stereo not shown) [Re-15] | 0.136 ± 0.022 µM | 0.322 ± 0.061 µM | 60 | 160 | 8.34 |
